In ChEMBL document CHEMBL5465560, “Selectivity Literature for EUbOPEN Chemogenomic Library” (2024):

Legend:
[1] = target: Bone morphogenetic protein receptor type-1B (Homo sapiens, UniProt O00238); experiment: Selectivity interaction (KinomeScan (DiscoverX)) EUB0000595a BMPR1B; settings: at 10 µM
[2] = target: Dual specificity testis-specific protein kinase 2 (Homo sapiens) (UniProt Q96S53); experiment: Selectivity interaction (LanthaScreen Eu Kinase Binding Assay) EUB0001632a TESK2; settings: at 10 µM
Chain of Dual specificity testis-specific protein kinase 2 (Homo sapiens) (Q96S53 whole entry, looked up): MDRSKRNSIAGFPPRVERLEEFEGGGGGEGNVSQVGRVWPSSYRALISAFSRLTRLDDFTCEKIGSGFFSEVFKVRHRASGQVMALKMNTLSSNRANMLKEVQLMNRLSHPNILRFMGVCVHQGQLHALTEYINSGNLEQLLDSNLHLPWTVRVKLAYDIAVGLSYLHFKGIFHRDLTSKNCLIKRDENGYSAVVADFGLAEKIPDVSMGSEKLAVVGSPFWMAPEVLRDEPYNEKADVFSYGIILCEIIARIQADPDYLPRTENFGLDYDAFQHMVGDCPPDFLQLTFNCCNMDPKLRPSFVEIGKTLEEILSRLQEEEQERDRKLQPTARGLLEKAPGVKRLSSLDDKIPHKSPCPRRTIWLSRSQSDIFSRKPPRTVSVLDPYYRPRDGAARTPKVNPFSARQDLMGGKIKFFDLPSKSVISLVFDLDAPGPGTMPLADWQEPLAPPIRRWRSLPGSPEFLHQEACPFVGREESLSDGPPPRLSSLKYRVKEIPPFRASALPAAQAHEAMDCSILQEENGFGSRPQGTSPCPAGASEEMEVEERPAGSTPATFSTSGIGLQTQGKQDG

[3] = target: T1, Cytoplasmic tyrosine-protein kinase BMX (Homo sapiens) (UniProt P51813); experiment: Selectivity interaction (Kinase panel (Z-LYTE Assay)) EUB0001632a BMX; settings: at 10 µM
T1 sequence (whole entry): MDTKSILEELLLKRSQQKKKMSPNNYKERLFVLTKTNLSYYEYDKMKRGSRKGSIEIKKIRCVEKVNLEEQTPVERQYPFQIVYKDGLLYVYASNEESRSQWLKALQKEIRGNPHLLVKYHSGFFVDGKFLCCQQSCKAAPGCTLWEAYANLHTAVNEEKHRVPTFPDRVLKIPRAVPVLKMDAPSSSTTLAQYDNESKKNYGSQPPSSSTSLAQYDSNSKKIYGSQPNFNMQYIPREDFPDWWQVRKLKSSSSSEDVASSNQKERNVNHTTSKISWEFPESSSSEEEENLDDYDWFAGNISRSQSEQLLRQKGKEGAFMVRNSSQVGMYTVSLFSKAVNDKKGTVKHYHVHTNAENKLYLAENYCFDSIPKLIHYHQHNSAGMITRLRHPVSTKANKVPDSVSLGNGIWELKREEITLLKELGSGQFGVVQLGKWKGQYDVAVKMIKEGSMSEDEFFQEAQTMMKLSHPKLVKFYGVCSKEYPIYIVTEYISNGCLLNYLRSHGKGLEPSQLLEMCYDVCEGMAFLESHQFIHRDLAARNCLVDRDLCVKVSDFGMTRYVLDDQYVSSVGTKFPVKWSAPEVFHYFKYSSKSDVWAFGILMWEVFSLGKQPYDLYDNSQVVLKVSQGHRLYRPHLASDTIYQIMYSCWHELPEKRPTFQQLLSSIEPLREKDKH

[4] = target: Vascular endothelial growth factor receptor 1 (Homo sapiens) (UniProt P17948); experiment: Selectivity interaction (KinomeScan (DiscoverX)) EUB0000666a FLT1; settings: at 10 µM
[5] = target: Delta-type opioid receptor (Homo sapiens, UniProt P41143); experiment: Selectivity interaction (Panel of non-epigenetic targets (kinases, GPCRs, ion channels, and transporters, Eurofins) ) EUB0000271b OPRD1; settings: at 1 µM
[6] = target: T1, Cytoplasmic tyrosine-protein kinase BMX (Homo sapiens); experiment: Selectivity interaction (Kinase screening (Nanosyn)) EUB0000604a BMX
[7] = target: T2, Mitogen-activated protein kinase kinase kinase 3 (Homo sapiens) (UniProt Q99759); experiment: Selectivity interaction (KinomeScan (DiscoverX)) EUB0001049a MAP3K3; settings: at 1 µM
T2 sequence (whole entry): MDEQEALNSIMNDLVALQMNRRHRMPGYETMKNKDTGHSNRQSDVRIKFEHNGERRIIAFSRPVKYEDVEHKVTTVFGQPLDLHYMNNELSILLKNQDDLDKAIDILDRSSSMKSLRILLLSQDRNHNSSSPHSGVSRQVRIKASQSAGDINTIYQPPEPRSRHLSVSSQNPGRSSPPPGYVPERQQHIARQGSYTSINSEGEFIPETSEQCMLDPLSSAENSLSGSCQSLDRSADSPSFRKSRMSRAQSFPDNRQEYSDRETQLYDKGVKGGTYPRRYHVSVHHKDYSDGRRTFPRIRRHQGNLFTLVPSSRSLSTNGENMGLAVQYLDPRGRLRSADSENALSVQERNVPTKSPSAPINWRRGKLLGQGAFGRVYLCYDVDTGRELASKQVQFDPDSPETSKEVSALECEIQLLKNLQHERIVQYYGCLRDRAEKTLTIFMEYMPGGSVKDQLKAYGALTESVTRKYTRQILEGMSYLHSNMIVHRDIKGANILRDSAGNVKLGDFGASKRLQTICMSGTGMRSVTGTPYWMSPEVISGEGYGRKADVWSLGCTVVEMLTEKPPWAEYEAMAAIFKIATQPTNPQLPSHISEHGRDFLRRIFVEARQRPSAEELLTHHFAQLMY

[8] = target: Activin receptor type-1-like (Homo sapiens) (UniProt P37023); experiment: Selectivity interaction (KinomeScan (DiscoverX)) EUB0001049a ACVRL1; settings: at 1 µM
Chain of Activin receptor type-1-like (Homo sapiens) (P37023 whole entry): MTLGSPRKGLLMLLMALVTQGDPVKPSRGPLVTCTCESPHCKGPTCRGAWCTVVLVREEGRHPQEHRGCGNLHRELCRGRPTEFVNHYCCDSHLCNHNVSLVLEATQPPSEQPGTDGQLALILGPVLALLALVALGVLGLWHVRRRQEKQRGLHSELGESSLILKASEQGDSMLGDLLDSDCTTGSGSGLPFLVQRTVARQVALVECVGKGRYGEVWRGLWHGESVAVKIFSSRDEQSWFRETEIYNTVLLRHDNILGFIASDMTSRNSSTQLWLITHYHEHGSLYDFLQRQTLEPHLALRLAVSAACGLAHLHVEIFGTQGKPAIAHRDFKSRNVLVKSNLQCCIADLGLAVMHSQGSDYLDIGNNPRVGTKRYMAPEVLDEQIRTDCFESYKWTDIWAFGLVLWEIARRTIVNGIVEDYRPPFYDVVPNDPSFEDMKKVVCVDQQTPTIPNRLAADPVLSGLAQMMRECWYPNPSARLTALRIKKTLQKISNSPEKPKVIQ

[9] = target: Tyrosine-protein kinase Fes/Fps (Homo sapiens) (UniProt P07332); experiment: Selectivity interaction (ActivX KiNativ screen (ex vivo kinase selectivity in human PBMCs)) EUB0001619a FES; type: cell-based; settings: PBMC, at 1 µM
Chain of Tyrosine-protein kinase Fes/Fps (Homo sapiens) (P07332 whole entry): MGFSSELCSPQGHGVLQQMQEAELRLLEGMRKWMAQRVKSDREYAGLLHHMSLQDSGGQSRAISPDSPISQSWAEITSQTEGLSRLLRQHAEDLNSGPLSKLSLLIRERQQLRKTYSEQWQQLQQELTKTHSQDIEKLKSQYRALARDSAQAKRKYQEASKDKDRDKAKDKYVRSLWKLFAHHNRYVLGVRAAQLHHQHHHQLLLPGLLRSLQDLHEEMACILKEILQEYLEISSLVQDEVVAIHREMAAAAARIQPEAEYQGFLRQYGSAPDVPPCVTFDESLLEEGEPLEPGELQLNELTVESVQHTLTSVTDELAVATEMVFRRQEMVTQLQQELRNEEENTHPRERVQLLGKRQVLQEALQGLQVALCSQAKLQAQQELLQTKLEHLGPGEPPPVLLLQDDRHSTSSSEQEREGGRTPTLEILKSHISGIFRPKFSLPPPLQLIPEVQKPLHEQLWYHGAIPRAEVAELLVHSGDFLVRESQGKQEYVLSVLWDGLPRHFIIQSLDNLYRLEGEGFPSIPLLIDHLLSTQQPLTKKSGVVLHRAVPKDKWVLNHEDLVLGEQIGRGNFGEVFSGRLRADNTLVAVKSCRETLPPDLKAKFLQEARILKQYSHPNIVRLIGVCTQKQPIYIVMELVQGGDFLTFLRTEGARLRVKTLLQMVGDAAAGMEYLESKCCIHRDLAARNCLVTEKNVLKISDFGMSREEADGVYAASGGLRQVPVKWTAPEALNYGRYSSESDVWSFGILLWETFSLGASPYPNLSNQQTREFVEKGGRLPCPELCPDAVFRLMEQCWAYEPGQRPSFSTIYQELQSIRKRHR

[10] = target: G protein-coupled receptor kinase 5 (Homo sapiens, UniProt P34947); experiment: Selectivity interaction (Kinase panel (DSF assay)) EUB0001558a GRK5
Chain of G protein-coupled receptor kinase 5 (P34947 whole entry, looked up): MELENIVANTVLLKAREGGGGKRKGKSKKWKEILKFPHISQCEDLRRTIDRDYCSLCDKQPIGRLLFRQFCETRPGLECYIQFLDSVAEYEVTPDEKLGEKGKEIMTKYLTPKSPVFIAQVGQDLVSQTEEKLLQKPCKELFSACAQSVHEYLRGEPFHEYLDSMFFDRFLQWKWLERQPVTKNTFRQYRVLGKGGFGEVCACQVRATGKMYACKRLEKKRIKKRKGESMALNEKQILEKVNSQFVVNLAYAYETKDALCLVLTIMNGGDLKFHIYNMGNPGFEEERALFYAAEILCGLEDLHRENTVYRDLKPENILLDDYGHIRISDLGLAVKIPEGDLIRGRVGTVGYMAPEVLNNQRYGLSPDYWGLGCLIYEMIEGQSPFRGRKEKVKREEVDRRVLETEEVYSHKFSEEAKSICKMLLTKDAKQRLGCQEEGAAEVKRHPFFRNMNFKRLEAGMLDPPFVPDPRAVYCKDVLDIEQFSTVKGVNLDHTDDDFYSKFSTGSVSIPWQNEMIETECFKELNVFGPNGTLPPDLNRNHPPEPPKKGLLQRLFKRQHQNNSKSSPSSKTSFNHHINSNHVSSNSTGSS

[11] = target: AP2-associated protein kinase 1 (Homo sapiens, UniProt Q2M2I8); experiment: Selectivity interaction (KinomeScan (DiscoverX)) EUB0000655a AAK1; settings: at 10 µM
Chain of AP2-associated protein kinase 1 (Q2M2I8 whole entry, looked up): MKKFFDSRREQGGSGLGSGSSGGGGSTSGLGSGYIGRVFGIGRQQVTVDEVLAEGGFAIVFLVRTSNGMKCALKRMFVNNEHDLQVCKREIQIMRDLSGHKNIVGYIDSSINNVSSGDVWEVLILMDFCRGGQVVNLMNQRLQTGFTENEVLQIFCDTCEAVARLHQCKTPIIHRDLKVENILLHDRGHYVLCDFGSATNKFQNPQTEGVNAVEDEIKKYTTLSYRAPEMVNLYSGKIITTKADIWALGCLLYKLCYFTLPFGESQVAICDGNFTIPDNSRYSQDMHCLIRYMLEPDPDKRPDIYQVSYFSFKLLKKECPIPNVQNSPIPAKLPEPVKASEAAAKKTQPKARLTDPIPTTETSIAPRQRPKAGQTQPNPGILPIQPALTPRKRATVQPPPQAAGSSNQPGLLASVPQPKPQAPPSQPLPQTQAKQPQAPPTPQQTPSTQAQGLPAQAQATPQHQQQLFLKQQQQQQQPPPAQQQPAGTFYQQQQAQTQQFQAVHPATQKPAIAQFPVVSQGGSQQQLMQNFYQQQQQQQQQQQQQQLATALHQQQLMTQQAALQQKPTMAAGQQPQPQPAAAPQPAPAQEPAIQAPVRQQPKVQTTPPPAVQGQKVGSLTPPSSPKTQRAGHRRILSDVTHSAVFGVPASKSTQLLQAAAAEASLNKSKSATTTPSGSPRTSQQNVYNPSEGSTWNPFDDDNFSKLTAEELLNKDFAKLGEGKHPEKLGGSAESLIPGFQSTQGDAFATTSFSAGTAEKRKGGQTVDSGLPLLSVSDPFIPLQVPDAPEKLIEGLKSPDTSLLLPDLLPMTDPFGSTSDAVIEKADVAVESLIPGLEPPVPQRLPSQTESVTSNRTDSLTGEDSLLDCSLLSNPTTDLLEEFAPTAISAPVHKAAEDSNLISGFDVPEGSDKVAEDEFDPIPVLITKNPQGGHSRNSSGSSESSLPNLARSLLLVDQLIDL

[12] = target: MAP kinase-interacting serine/threonine-protein kinase 1 (Homo sapiens) (UniProt Q9BUB5); settings: at 10 µM
Chain of MAP kinase-interacting serine/threonine-protein kinase 1 (Homo sapiens) (Q9BUB5 whole entry, looked up): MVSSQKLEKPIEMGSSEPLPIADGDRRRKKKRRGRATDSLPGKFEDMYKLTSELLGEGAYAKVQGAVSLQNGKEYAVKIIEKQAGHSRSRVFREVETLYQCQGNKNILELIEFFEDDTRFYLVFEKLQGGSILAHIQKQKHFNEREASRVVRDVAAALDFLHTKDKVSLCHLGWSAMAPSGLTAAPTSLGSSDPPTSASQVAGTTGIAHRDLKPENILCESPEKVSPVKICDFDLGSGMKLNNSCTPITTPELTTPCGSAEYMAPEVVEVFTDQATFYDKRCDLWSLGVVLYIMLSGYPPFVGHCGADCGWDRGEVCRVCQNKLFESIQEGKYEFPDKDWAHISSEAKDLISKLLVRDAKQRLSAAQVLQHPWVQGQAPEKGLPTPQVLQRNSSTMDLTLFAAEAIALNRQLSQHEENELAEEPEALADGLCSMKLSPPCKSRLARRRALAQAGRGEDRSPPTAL

[13] = target: Serine/threonine-protein kinase 25 (Homo sapiens) (UniProt O00506); experiment: Selectivity interaction (Ambit KINOMEscan and KiNATiv profiling in Jurkat cells) EUB0000090b STK25; type: cell-based; settings: at 1 µM
Chain of Serine/threonine-protein kinase 25 (Homo sapiens) (O00506 whole entry, looked up): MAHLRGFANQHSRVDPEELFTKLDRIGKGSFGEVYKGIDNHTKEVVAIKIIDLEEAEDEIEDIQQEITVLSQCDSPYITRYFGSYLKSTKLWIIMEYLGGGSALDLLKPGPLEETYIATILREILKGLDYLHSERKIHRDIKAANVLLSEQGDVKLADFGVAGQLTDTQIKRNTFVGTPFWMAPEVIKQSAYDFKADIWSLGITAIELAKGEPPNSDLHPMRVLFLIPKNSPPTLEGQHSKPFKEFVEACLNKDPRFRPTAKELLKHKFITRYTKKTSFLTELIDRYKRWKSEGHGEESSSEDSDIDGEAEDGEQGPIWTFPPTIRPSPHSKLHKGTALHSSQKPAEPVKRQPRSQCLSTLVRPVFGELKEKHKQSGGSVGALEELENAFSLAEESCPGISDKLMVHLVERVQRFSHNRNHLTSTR

Chain of Bone morphogenetic protein receptor type-1B (O00238 whole entry): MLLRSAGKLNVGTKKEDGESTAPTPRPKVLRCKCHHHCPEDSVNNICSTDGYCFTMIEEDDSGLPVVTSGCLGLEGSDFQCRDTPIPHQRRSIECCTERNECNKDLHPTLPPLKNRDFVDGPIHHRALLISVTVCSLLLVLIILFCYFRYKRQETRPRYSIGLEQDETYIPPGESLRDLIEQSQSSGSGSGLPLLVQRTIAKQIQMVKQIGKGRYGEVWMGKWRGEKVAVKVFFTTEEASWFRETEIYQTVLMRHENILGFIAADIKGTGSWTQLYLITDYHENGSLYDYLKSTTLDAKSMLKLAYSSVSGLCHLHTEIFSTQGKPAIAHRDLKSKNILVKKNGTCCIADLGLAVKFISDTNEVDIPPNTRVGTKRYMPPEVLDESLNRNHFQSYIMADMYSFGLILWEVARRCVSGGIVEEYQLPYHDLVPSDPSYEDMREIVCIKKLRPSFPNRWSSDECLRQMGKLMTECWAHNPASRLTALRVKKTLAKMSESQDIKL

With COCC(=O)NC/C=C/c1ccc2ncnc(Nc3ccc(Oc4ccc(C)nc4)c(C)c3)c2c1 [CP-724714] the % of control [1] was 17%.

In the case of Cn1cc(-n2cnc3c(NCc4nc5cc(Cl)c(Cl)cc5[nH]4)nc(N4CCOCC4)nc32)cn1, the % of inhibition [2] is reported as 0.732% and the % of control [3] is reported as 2.67%.

Compound O=C(NOC[C@H](O)CO)c1ccc(F)c(F)c1Nc1ccc(I)cc1F has a % of control [4] of 94%.

In the case of Cc1cc(C)cc([C@@H]2c3cc(C)ccc3NC(=O)CN2C(=O)c2ccc(Br)s2)c1, the % of inhibition [5] is reported as -20%.

Cc1cnc(Nc2ccc(F)cc2Cl)nc1-c1c[nH]c(C(=O)N[C@H](CO)c2cccc(Cl)c2)c1 gave a % of inhibition [6] of 3%.

Work on COc1cc(Nc2nc(C)cc(-c3cnn4nc(OC)ccc34)n2)cc(C(F)(F)F)c1 yielded a % of control [7] of 72% and a % of control [8] of 89%.

N#Cc1cccc(-c2c[nH]c3ncnc(N4CCOCC4)c23)c1 was tested, and the % of inhibition [9] was 7%.

In the case of CC(C)(O)[C@H](F)CN1Cc2cc(NC(=O)c3cnn4cccnc34)c(N3CCOCC3)cc2C1=O, the dTM [10] is reported as 0.2 K.

CN(C)CCOc1ccc(-c2nc(-c3ccncc3)c(-c3ccc4c(c3)CC/C4=N\O)[nH]2)cc1 was tested, and the % of control [11] was 76%.

Work on CCN(CC)CCCCNc1ncc2cc(-c3cc(OC)cc(OC)c3)c(NC(=O)NC(C)(C)C)nc2n1 yielded a % of control [12] of 100%.

With CN(C)C/C=C/C(=O)Nc1ccc(C(=O)N2CCCC(Nc3ncc(Cl)c(-c4c[nH]c5ccccc45)n3)C2)cc1 (stereo not drawn) the % of control [13] was 77%.
